Assay results as given in patent publication US20240002393A1, “SUBSTITUTED BENZO[f][l ,2,4JTRIAZOL0[4,3-a][l ,4J[…] GABA A GAMMA! POSITIVE ALLOSTERIC MODULATORS” (Hoffmann-La Roche Inc., priority 2020, published 2024).

Tests used:
[1] = target: human GABAA α2β2γ1 receptor (Homo sapiens (Human), UniProt P47869+Q8N1C3); assay: Radioligand binding assay, [3H]RO7239181 competition, γ1-containing GABAA subtypes; conditions: for Ki: HEK293F membranes, [3H]RO7239181 20-30 nM, mean of two determinations, read-out: Ki h-GABAA α2β2γ1; for γ2/γ1 Selectivity Ratio: Ki α1β3γ2 (nM)/Ki α2β2γ1 (nM); for LogSel: Log[Ki α1β3γ2 (nM)/Ki α2β2γ1 (nM)]
[2] = target: human GABAA α1β2γ1 receptor (Homo sapiens (Human), UniProt P14867+Q8N1C3); assay: as above; conditions: HEK293F membranes, [3H]RO7239181 20-30 nM, mean of two determinations
h-GABA-A α2β2γ1 = h-GABA-A α2β2γ1 (Homo sapiens (Human), UniProt P47869+Q8N1C3); assay: Two-electrode voltage clamp electrophysiology in Xenopus oocytes expressing GABAA receptors; format: cell-based; conditions: for Efficacy (GABA)%: % modulation of GABA EC20 = 100*(Fold increase−1), compound at 30-fold Ki; for Fold increase h-GABA-A α2β2γ1 oocyte @ 30-fold Ki: GABA EC20, test compound at about 30-fold its Ki α2β2γ1, at least 3 oocytes
Outline: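 Oocytes injected with α2β2γ1 subunit mRNA were recorded on days 3–5 by two-electrode voltage clamp at −80 mV, room temperature, pH 7.4 superfusion. Compound effect on GABA EC20 current computed point by point against a control GABA response; extremum expressed as % modulation of GABA EC20, n≥3 oocytes.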

Cc1nccc(-c2nnc3n2-c2ccc(Cl)c(Cl)c2C(c2c(F)cccc2F)=N[C@H]3C)n1 [Example 95, (4S)-7,8-dichloro-6-(2,6-difluorophenyl)-4-methyl-1-(2-methylpyrimidin-4-yl)-4H-[1,2,4]triazolo[4,3-a][1,4]benzodiazepine]
Ki [1]: 14.2 nM
γ2/γ1 Selectivity Ratio [1]: 32.7
LogSel [1]: 1.51
Ki [2]: 24.7 nM
Efficacy (GABA)% (h-GABA-A α2β2γ1): 53%
Fold increase h-GABA-A α2β2γ1 oocyte @ 30-fold Ki (h-GABA-A α2β2γ1): 1.53

Cc1cc(-c2nnc3n2-c2ccc(Cl)c(Cl)c2C(c2c(F)cccc2F)=N[C@H]3C)nc(C)n1 [Example 96, (4S)-7,8-dichloro-6-(2,6-difluorophenyl)-1-(2,6-dimethylpyrimidin-4-yl)-4-methyl-4H-[1,2,4]triazolo[4,3-a][1,4]benzodiazepine]
Ki [1]: 13.9 nM
γ2/γ1 Selectivity Ratio [1]: 34.1
LogSel [1]: 1.53
Ki [2]: 27.9 nM
Efficacy (GABA)% (h-GABA-A α2β2γ1): 52%
Fold increase h-GABA-A α2β2γ1 oocyte @ 30-fold Ki (h-GABA-A α2β2γ1): 1.52

Cc1ccc2c(c1Cl)C(c1c(F)cccc1F)=N[C@@H](C)c1nnc(C)n1-2 [Example 97, (4S)-7-chloro-6-(2,6-difluorophenyl)-1,4,8-trimethyl-4H-[1,2,4]triazolo[4,3-a][1,4]benzodiazepine]
Ki [1]: 27.1 nM
γ2/γ1 Selectivity Ratio [1]: 15.7
LogSel [1]: 1.19
Ki [2]: 33.6 nM
Efficacy (GABA)% (h-GABA-A α2β2γ1): 148%
Fold increase h-GABA-A α2β2γ1 oocyte @ 30-fold Ki (h-GABA-A α2β2γ1): 2.48

CC[C@@H]1N=C(c2c(F)cccc2F)c2c(ccc(Br)c2Cl)-n2c(C)nnc21 [Example 98, (4S)-8-bromo-7-chloro-6-(2,6-difluorophenyl)-4-ethyl-1-methyl-4H-[1,2,4]triazolo[4,3-a][1,4]benzodiazepine]
Ki [1]: 72 nM
γ2/γ1 Selectivity Ratio [1]: 20.3
LogSel [1]: 1.31
Ki [2]: 57.6 nM
Efficacy (GABA)% (h-GABA-A α2β2γ1): 107%
Fold increase h-GABA-A α2β2γ1 oocyte @ 30-fold Ki (h-GABA-A α2β2γ1): 2.07

Cc1nnc2n1-c1ccc(C(F)F)c(Cl)c1C(c1c(F)cccc1F)=N[C@H]2C [Example 99, (4S)-7-chloro-8-(difluoromethyl)-6-(2,6-difluorophenyl)-1,4-dimethyl-4H-[1,2,4]triazolo[4,3-a][1,4]benzodiazepine]
Ki [1]: 55.4 nM
γ2/γ1 Selectivity Ratio [1]: 36.4
LogSel [1]: 1.56
Ki [2]: 63.4 nM
Efficacy (GABA)% (h-GABA-A α2β2γ1): 135%
Fold increase h-GABA-A α2β2γ1 oocyte @ 30-fold Ki (h-GABA-A α2β2γ1): 2.35

COC[C@@H]1N=C(c2c(F)cccc2F)c2c(ccc(Br)c2Cl)-n2c(C)nnc21 [Example 100, (4R)-8-bromo-7-chloro-6-(2,6-difluorophenyl)-4-(methoxymethyl)-1-methyl-4H-[1,2,4]triazolo[4,3-a][1,4]benzodiazepine]
Ki [1]: 19.8 nM
γ2/γ1 Selectivity Ratio [1]: 14.6
LogSel [1]: 1.16
Ki [2]: 34 nM
Efficacy (GABA)% (h-GABA-A α2β2γ1): 64%
Fold increase h-GABA-A α2β2γ1 oocyte @ 30-fold Ki (h-GABA-A α2β2γ1): 1.64

Cc1nnc2n1-c1ccc(Br)c(Cl)c1C(c1c(F)cccc1F)=N[C@H]2CO [Example 101, [(4R)-8-bromo-7-chloro-6-(2,6-difluorophenyl)-1-methyl-4H-[1,2,4]triazolo[4,3-a][1,4]benzodiazepin-4-yl]methanol]
Ki [1]: 26.4 nM
γ2/γ1 Selectivity Ratio [1]: 18.8
LogSel [1]: 1.27
Ki [2]: 14.3 nM
Efficacy (GABA)% (h-GABA-A α2β2γ1): 119%
Fold increase h-GABA-A α2β2γ1 oocyte @ 30-fold Ki (h-GABA-A α2β2γ1): 2.19

Cc1nnc2n1-c1ccc(I)c(Cl)c1C(c1c(F)cccc1F)=N[C@H]2C [Example 102, (4S)-7-chloro-6-(2,6-difluorophenyl)-8-iodo-1,4-dimethyl-4H-[1,2,4]triazolo[4,3-a][1,4]benzodiazepine]
Ki [1]: 8 nM
γ2/γ1 Selectivity Ratio [1]: 34.7
LogSel [1]: 1.54
Ki [2]: 6.6 nM
Efficacy (GABA)% (h-GABA-A α2β2γ1): 89%
Fold increase h-GABA-A α2β2γ1 oocyte @ 30-fold Ki (h-GABA-A α2β2γ1): 1.89

C[C@@H]1N=C(c2c(F)cccc2F)c2c(ccc(C(F)(F)F)c2Cl)-n2c(CO)nnc21 [Example 103, [(4S)-7-chloro-6-(2,6-difluorophenyl)-4-methyl-8-(trifluoromethyl)-4H-[1,2,4]triazolo[4,3-a][1,4]benzodiazepin-1-yl]methanol]
Ki [1]: 50.4 nM
γ2/γ1 Selectivity Ratio [1]: 67.0
LogSel [1]: 1.83
Ki [2]: 49.8 nM
Efficacy (GABA)% (h-GABA-A α2β2γ1): 123%
Fold increase h-GABA-A α2β2γ1 oocyte @ 30-fold Ki (h-GABA-A α2β2γ1): 2.23
